According to patent US10226041B2, “Compositions and methods for improving the quality of processed sperm” (Inguran, LLC, priority 2011, dated 2019):
Values joined by “and” are separate entries in the source; they are usually repeats but may differ in a detail not shown here. Equal entries are not always repeated.

System: sex-sorted sperm cells
Test: CASA post-thaw motility of sex sorted bull sperm treated with OSR
Type: cell-based, bovine
Set-up: key to BCF: beat cross frequency in Hz; key to ALH: lateral head displacement in μm; key to STR / LIN: percent; key to Motile: percent motile sperm; key to VAP / VSL / VCL: velocity in μm/s
Conditions: for ALH / BCF / LIN / Motile / Prog / STR / VAP / VCL / VSL: 3 hr post-thaw
Description: 5. Sperm Motility Evaluations by CASA. A comparison of viewing chambers and slides can be done in a variety of IVOS instruments, which for example only can be a Hamilton-Thorne IVOS (Hamilton-Thorne, Beverly, Mass.). Instrument settings: image capture; frames per second=60; number of frames=30; cell detection; minimum contrast=50; minimum cell size=5; defaults, cell size=5; cell intensity=50; progressive cells, path velocity=50 um/s; straightness ≥70%; slow cells (um/s); average path velocity (VAP, <30 um/s), straight-line velocity (VSL, <15 um/s). The CASA motility variables measured can be a percentage of total motile sperm (motile), percentage of progressively motile sperm (progressive), VAO, VSL, curvilinear velocity (VCL, um/s), average lateral head displacement (ALK, um) and the number of times the sperm head crosses the mean path/s (BCF, Hz), straight-line sperm motility (STR, %), and linear sperm motility (LIN, %). See for instance, Lenz, R W, et al., J Anim Sci (2011) 89:383-388, incorporated by reference herein in its entirety.
One set of semen from each bull was used as a control while to the remaining sets of semen samples were added vitamin B12, as the antioxidant, at respective concentrations of 0.5 mg/ml and 0.25 mg/ml. For each sample, the same concentration of vitamin B12 was added (i) during the staining process, and (ii) in the catch fluid of the collection vessel. […] Sperm samples were sorted in “High Purity” mode, and the collected sex-sorted sperm were extended with a cryoextender, which in some cases again contained the same concentration of vitamin B12 and the samples were frozen. Three hours after thawing (which is a standard time frame to conduct quality control assessments on sorted frozen thawed sperm samples) the thawed samples were put through CASA, a machine that provides various data on sperm including motility and progressive motility information.
In the tables below: VAP (average path velocity (μm/s)); VSL (straight-line velocity (μm/s)); VCL (curvilinear velocity (μm/s)); ALH (average lateral head displacement (μm)); BCF (the number of times the sperm head crosses the mean path/s in Hz); STR (percent straight-line sperm motility); LIN (percent linear sperm motility); PIA (percent intact acrosomes); motile (percent motile sperm); and progressive (percent progressively motile sperm).
There is no correlation with regard to randomly assigned names such as “Bull A.” Bull A from Example 5 is not the same bull as Bull A from Example 7.
In both cases the concentration of the vitamin B12 was 1 mg/ml. For all other bulls in the table below unless otherwise indicated, the concentration of vitamin B12 added was also 1 mg/ml.
In an additional experiment, motility and progressive motility were checked 3.75 hours after thawing a sex sorted semen sample treated with the antioxidant. The OSR was not added to the control sample. The semen sample was derived from a single bull. 0.25 mg/ml concentration of vitamin B12 was added to the test sample during the staining step, the collecting step (in the catch fluid of the collecting vessel) and in the cryoprotectant extender prior to freezing the sample.
[…] The OSR was not added to the control samples. The semen samples were derived from two Holstein bulls.

[1] = 0.5 mg/ml, 2 step F, 3 hrs post-thaw, Bulls 1-5
[2] = .15 mg/ml, 3 step, Holstein, 1M/straw
[3] = .15 mg/ml, 3 step, Holstein, 2.1M/straw
[4] = .15 mg/ml, 3 step, Jersey, 2.1M/straw
[5] = .25 mg/ml, 3 step, Holstein, 1M/straw
[6] = .25 mg/ml, 3 step, Holstein, 2.1M/straw
[7] = .25 mg/ml, 3 step, Holstein, 5M/straw
[8] = .25 mg/ml, 3 step, Jersey, 2.1M/straw
[9] = .35 mg/ml, 3 step, Holstein, 1M/straw
[10] = .35 mg/ml, 3 step, Holstein, 2.1M/straw
[11] = .35 mg/ml, 3 step, Holstein, 5M/straw
[12] = .5 mg/ml, 3 step, Holstein, 5M/straw

vitamin B12
% Motility (0 hr, 1 step-stain (+−−), Bull C (Jersey), Trial 1): 80%
% Motility (0 hr, 1 step-stain (+−−), Bull C (Jersey), Trial 2): 61%
% Motility (0 hr, 2 step-stain (++−), Bull C (Jersey), Trial 1): 74%
% Motility (0 hr, 2 step-stain (++−), Bull C (Jersey), Trial 2): 57%
% Motility (0 hr, 3 step (+++), Bull C (Jersey), Trial 1): 70%
% Motility (0 hr, 3 step (+++), Bull C (Jersey), Trial 2): 76%
% Motility (0 hr, vitamin B12 0.5 mg/ml, 3 step, Bull A (Jersey)): 60%
% Motility (0 hr, vitamin B12 0.5 mg/ml, 3 step, Bull B (Holstein)): 79%
Motile (percent motile sperm) (0.5 mg/ml, 2 step F (catch fluid + cryoextender), 3 hrs post-thaw, Bulls 1-5): 70.5% and 74.5% and 81.5% and 51% and 63.5%
ALH (average lateral head displacement) [1]: 4 μm and 5 μm
BCF (times sperm head crosses the mean path/s) [1]: 21.5 Hz and 22.5 Hz and 26 Hz and 20.5 Hz and 23 Hz
LIN (percent linear sperm motility) [1]: 61% and 52.5% and 49% and 47%
STR (percent straight-line sperm motility) [1]: 85.5% and 84.5% and 83.5% and 84% and 86.5%
VAP (average path velocity) [1]: 77 μm/s and 56 μm/s and 60 μm/s and 50 μm/s
VCL (curvilinear velocity) [1]: 108 μm/s and 98 μm/s and 109 μm/s and 101 μm/s and 94 μm/s
VSL (straight-line velocity) [1]: 66 μm/s and 51 μm/s and 53 μm/s and 47 μm/s and 45 μm/s
% Motility (3 hr, 1 step-stain (+−−), Bull C (Jersey), Trial 1): 47%
% Motility (3 hr, 2 step-stain (++−), Bull C (Jersey), Trial 1): 57%
% Motility (3 hr, 2 step-stain (++−), Bull C (Jersey), Trial 2): 25%
% Motility (3 hr, 3 step (+++), Bull C (Jersey), Trial 1): 75%
% Motility (3 hr, 3 step (+++), Bull C (Jersey), Trial 2): 42%
% Motility (3 hr, vitamin B12 0.5 mg/ml, 3 step, Bull A (Jersey)): 42%
% Motility (3 hr, vitamin B12 0.5 mg/ml, 3 step, Bull B (Holstein)): 48%
ALH [2]: 4
BCF [2]: 12
LIN [2]: 53
Motile [2]: 48
Prog [2]: 18
STR [2]: 88
VAP [2]: 48
VCL [2]: 81
VSL [2]: 42
ALH [3]: 5
BCF [3]: 18
LIN [3]: 48
Motile [3]: 49
Prog [3]: 10
STR [3]: 86
VAP [3]: 44
VCL [3]: 79
VSL [3]: 38
ALH [4]: 6
BCF [4]: 15
LIN [4]: 47
Motile [4]: 25
Prog [4]: 4
STR [4]: 84
VAP [4]: 42
VCL [4]: 75
VSL [4]: 35
ALH [5]: 4
BCF [5]: 22
LIN [5]: 53
Motile [5]: 48
Prog [5]: 29
STR [5]: 87
VAP [5]: 55
VCL [5]: 92
VSL [5]: 47
ALH [6]: 5
BCF [6]: 20
LIN [6]: 50
Motile [6]: 48
Prog [6]: 18
STR [6]: 87
VAP [6]: 46
VCL [6]: 81
VSL [6]: 40
ALH [7]: 7
BCF [7]: 14
LIN [7]: 42
Motile [7]: 24
Prog [7]: 2
STR [7]: 70
VAP [7]: 41
VCL [7]: 69
VSL [7]: 28
ALH [8]: 5
BCF [8]: 20
LIN [8]: 50
Motile [8]: 48
Prog [8]: 20
STR [8]: 85
VAP [8]: 51
VCL [8]: 87
VSL [8]: 43
ALH [9]: 4
BCF [9]: 23
LIN [9]: 55
Motile [9]: 65
Prog [9]: 46
STR [9]: 88
VAP [9]: 58
VCL [9]: 94
VSL [9]: 51
ALH [10]: 5
BCF [10]: 23
LIN [10]: 53
Motile [10]: 46
Prog [10]: 30
STR [10]: 88
VAP [10]: 58
VCL [10]: 99
VSL [10]: 51
ALH [11]: 7
BCF [11]: 14
LIN [11]: 43
Motile [11]: 28
Prog [11]: 3
STR [11]: 69
VAP [11]: 41
VCL [11]: 68
VSL [11]: 32
ALH [12]: 6
BCF [12]: 15
LIN [12]: 43
Motile [12]: 14
Prog [12]: 3
STR [12]: 70
VAP [12]: 43
VCL [12]: 71
VSL [12]: 30
